Experiments:
Format in all cases: in vivo
Details in all cases: 250 g/ha, evaluated after 13 days
[1] = test system: Ipomoea hederacea (IPOHE); assay: Post-emergence biological efficacy, IPOHE
Description: (§1) Seeds of weeds and/or crops were sown in standard soil in pots (Amaranthus palmeri (AMAPA), Chenopodium album (CHEAL), Euphorbia heterophylla (EPHHL), Ipomoea hederacea (IPOHE), Eleusine indica (ELEIN), Lolium perenne (LOLPE), Digitaria sanguinalis (DIGSA), Setaria faberi (SETFA), Echinochloa crus-galli (ECHCG)). After cultivation for 14 days under controlled conditions in a glasshouse (at 24/19° C., day/night; 16 hours light), the plants were sprayed with an aqueous spray solution derived from the formulation of the technical active ingredient in a small amount of acetone and a special solvent and emulsifier mixture referred to as IF50 (11.12% Emulsogen EL360 TM+44.44% N-methylpyrrolidone+44.44% Dowanol DPM glycol ether), to create a 50 g/l solution which was then diluted using 0.2% Genapol XO80 as diluent to give the desired final dose of test compound.
(§2) The test plants were then grown under controlled conditions in the glasshouse (at 24/18° C., day/night; 15 hours light; 50% humidity) and watered twice daily. After 13 days the test was evaluated (100=total damage to plant; 0=no damage to plant).

Setaria faberi (SETFA) [2] = assay: Post-emergence biological efficacy, SETFA
Description: as §1, §2

[3] = test system: Ipomoea hederacea (IPOHE); assay: Pre-emergence biological efficacy, IPOHE
Description: as §1, with “Lolium perenne (LOLPE),” for “Chenopodium album (CHEAL),”, “(IPOHE),” for “(IPOHE), Eleusine indica (ELEIN), Lolium perenne (LOLPE), Digitaria sanguinalis (DIGSA),”, “one day” for “14 days”
as §2

[4] = test system: Echinochloa crus-galli (ECHCG); assay: Post-emergence biological efficacy, ECHCG
Description: as §1, §2

[5] = test system: Amaranthus palmeri (AMAPA); assay: Post-emergence biological efficacy, AMAPA
Description: as §1, §2

[6] = test system: Amaranthus palmeri (AMAPA); assay: Pre-emergence biological efficacy, AMAPA
Description: as §1, with “Lolium perenne (LOLPE),” for “Chenopodium album (CHEAL),”, “(IPOHE),” for “(IPOHE), Eleusine indica (ELEIN), Lolium perenne (LOLPE), Digitaria sanguinalis (DIGSA),”, “one day” for “14 days”
as §2

Eleusine indica (ELEIN) = assay: Post-emergence biological efficacy, ELEIN
Description: as §1, §2

[7] = test system: Euphorbia heterophylla (EPHHL); assay: Pre-emergence biological efficacy, EPHHL
Description: as §1, with “Lolium perenne (LOLPE),” for “Chenopodium album (CHEAL),”, “(IPOHE),” for “(IPOHE), Eleusine indica (ELEIN), Lolium perenne (LOLPE), Digitaria sanguinalis (DIGSA),”, “one day” for “14 days”
as §2

[8] = test system: Digitaria sanguinalis (DIGSA); assay: Post-emergence biological efficacy, DIGSA
Description: as §1, §2

Lolium perenne (LOLPE) [9] = assay: Post-emergence biological efficacy, LOLPE
Description: as §1, §2

Setaria faberi (SETFA) [10] = assay: Pre-emergence biological efficacy, SETFA
Description: as §1, with “Lolium perenne (LOLPE),” for “Chenopodium album (CHEAL),”, “(IPOHE),” for “(IPOHE), Eleusine indica (ELEIN), Lolium perenne (LOLPE), Digitaria sanguinalis (DIGSA),”, “one day” for “14 days”
as §2

Lolium perenne (LOLPE) [11] = assay: Pre-emergence biological efficacy, LOLPE
Description: as §1, with “Lolium perenne (LOLPE),” for “Chenopodium album (CHEAL),”, “(IPOHE),” for “(IPOHE), Eleusine indica (ELEIN), Lolium perenne (LOLPE), Digitaria sanguinalis (DIGSA),”, “one day” for “14 days”
as §2

[12] = test system: Chenopodium album (CHEAL); assay: Post-emergence biological efficacy, CHEAL
Description: as §1, §2

[13] = test system: Echinochloa crus-galli (ECHCG); assay: Pre-emergence biological efficacy, ECHCG
Description: as §1, with “Lolium perenne (LOLPE),” for “Chenopodium album (CHEAL),”, “(IPOHE),” for “(IPOHE), Eleusine indica (ELEIN), Lolium perenne (LOLPE), Digitaria sanguinalis (DIGSA),”, “one day” for “14 days”
as §2

[14] = test system: Euphorbia heterophylla (EPHHL); assay: Post-emergence biological efficacy, EPHHL
Description: as §1, §2

| SMILES | damage to plant (100=total damage; 0=no damage), IPOHE [1] | damage to plant (100=total damage; 0=no damage), SETFA (Setaria faberi (SETFA) [2]) | damage to plant (100=total damage; 0=no damage), IPOHE [3] | damage to plant (100=total damage; 0=no damage), ECHCG [4] | damage to plant (100=total damage; 0=no damage), AMAPA [5] | damage to plant (100=total damage; 0=no damage), AMAPA [6] | damage to plant (100=total damage; 0=no damage), ELEIN (Eleusine indica (ELEIN)) | damage to plant (100=total damage; 0=no damage), EPHHL [7] | damage to plant (100=total damage; 0=no damage), DIGSA [8] | damage to plant (100=total damage; 0=no damage), LOLPE (Lolium perenne (LOLPE) [9]) | damage to plant (100=total damage; 0=no damage), SETFA (Setaria faberi (SETFA) [10]) | damage to plant (100=total damage; 0=no damage), LOLPE (Lolium perenne (LOLPE) [11]) | damage to plant (100=total damage; 0=no damage), CHEAL [12] | damage to plant (100=total damage; 0=no damage), ECHCG [13] | damage to plant (100=total damage; 0=no damage), EPHHL [14] |
| --- | --- | --- | --- | --- | --- | --- | --- | --- | --- | --- | --- | --- | --- | --- | --- |
| COC(=O)CCOC(=O)C(C)Sc1cc(-n2c(=O)n(C)c(=S)n(C)c2=O)c(F)cc1Cl (stereo not drawn) [Compound 9-245, (3-methoxy-3-oxo-propyl) 2-[2-chloro-5-(3,5-dimethyl-2,6-dioxo-4-thioxo-1,3,5-triazinan-1-yl)-4-fluoro-phenyl]sulfanylpropanoate] | 100 | 40 | 90 | 70 | 100 | 100 | 80 | 100 | 30 | 100 | 100 | 80 | 100 | 80 | 90 |
| COC(=O)CCNC(=O)C(C)Sc1cc(-n2c(=O)n(C)c(=S)n(C)c2=O)c(F)cc1Cl (stereo not drawn) [Compound 9-272, methyl 3-[2-[2-chloro-5-(3,5-dimethyl-2,6-dioxo-4-thioxo-1,3,5-triazinan-1-yl)-4-fluoro-phenyl]sulfanylpropanoylamino]propanoate] | 100 | 90 | 100 | 40 | 80 | 100 | 80 | 100 | 70 | 100 | 100 | 90 | 90 | 80 | 90 |

Reference: patent US20250109112A1, “HERBICIDAL COMPOUNDS” (SYNGENTA CROP PROTECTION AG, priority 2022, published 2025)
